The source of these data is a melting point compilation (Tetko et al.; mined from patent text by program, amines drawn as free bases though some values may be those of a salt).

The compound `N#Cc1cc(F)c(O)nc1O` registered a melting point of 135 to 140 °C.

`O=C1Cc2cc(F)cc(C(=O)c3ccc(F)cc3)c2N1` yielded a melting point of 195 to 196 °C.

On to `O=c1[nH]nc2ccc(NCCCN3CCC(OC(c4ccccc4)c4ccccc4)CC3)nn12`, for which the melting point was 156 to 170 °C.

As to `O=C(O)CCCc1cc2cc(Cl)ccc2n1S(=O)(=O)c1cccc2cccnc12`, the melting point is 217 to 219 °C.

In turn, `Cc1onc(-c2ccc(C(F)(F)F)cc2)c1CCl` displayed a melting point of 91 to 92 °C.

`C#CCc1c(C)nc2c(OCc3c(C)cccc3NC(=O)C(C)=O)cccn12`: the melting point was in the range of 158 to 160 °C.

As to `CC(C)(C)c1cccc(S(=O)(=O)Nc2ccc(C(F)(F)F)nc2I)c1`, the melting point was 125 °C.

With `CC(=O)c1ccc(C(Br)C(=O)OC(C)(C)C)cc1` (configuration not stated), the melting point is 54 to 56 °C.

With `CC(C)c1ccc(N(Cc2ccc(N(C)C)cc2)C(=O)C2CCOc3c(C#N)cccc32)cc1` (configuration not stated), the melting point was found to be 179 °C.

Turning to `c1ccc(CNc2nc(-c3cccs3)nc3ccccc23)cc1`, the melting point was in the range of 158 to 163 °C.

The compound `Cc1cc(C)n(-c2ccc(N(C)N)nn2)n1` had a melting point of 93 to 94 °C.

Turning to `CC(O)c1ccc(C(C)(C)C)cc1` (single isomer, unassigned; (+)), the melting point was determined as 85 °C.

The compound `CC(C)(C)OC(=O)CON=C1CC(=NOCC(=O)OC(C)(C)C)c2ccccc2-c2ccccc21` registered a melting point of 105 to 107 °C.

Turning to `O=C(Nc1ccc(OCc2ccoc2)c2ccccc12)c1cc(F)cc(N2CCCCC2)c1`, the melting point lay in the range of 152 to 153 °C.

Take `CN(C)C(=O)Cc1cccc(NC(=O)N(C)C)c1`: the melting point fell in the range of 80 to 81 °C.

In the case of `COc1ccc(/C=C/c2nc3c([nH]2)c(=O)n(C)c(=O)n3C)c(C)c1C`, the melting point is more than 275 °C.

As to `CCOC(=O)/C=C(/c1ccc(OC)cc1)c1cc(Cl)ccc1Cl`, the melting point fell in the range of 98 to 100 °C.

Turning to `OCC1C(c2ccc(F)cc2)CCC12C=Cc1ccccc12` (configuration not stated), the melting point lay within 84 to 86 °C.

Consider `COc1ccc(-c2c(C)c(NC(=O)CC(C)(C)C)c(C)c3c2OCC3c2ccc(C(C)C)cc2)cc1` (configuration not stated), for which the melting point was in the range of 129 to 131 °C.

For `Cc1cc(-n2nc(C(F)(F)F)cc2-c2ccc(-c3ccco3)cc2)ccc1S(C)(=O)=O`, the melting point fell in the range of 135 to 139 °C.

Turning to `c1csc(-c2cnc(-c3cccs3)o2)c1`, the melting point lay in the range of 64.5 to 66 °C.

In turn, `O[C@@H]1C=C[C@H](COC(c2ccccc2)(c2ccccc2)c2ccccc2)C1` (relative stereo) registered a melting point of 94 to 96 °C.

Compound `COc1cc(OC)nc(NC(=O)NS(=O)(=O)N=CN(C)CSC)n1` yielded a melting point of 167 to 168 °C.

On to `N#CC(=CC=Cc1ccccc1)C(=O)O`, for which the melting point was 196 °C.

The compound `COC(=O)c1cccc(NC(=O)CC(=O)c2ccccc2)c1C(=O)OC` displayed a melting point of 100 to 103 °C.

Consider `N#Cc1ccc(N(CCOc2ccc(OCc3ccccc3)c(Br)c2)n2cnnc2)cc1`, for which the melting point was 163 to 166 °C.

The compound `CC1(C)Oc2ccc(C#N)cc2[C@@H](NC2=C(F)C(=O)CC2)[C@@H]1O` (relative stereo) had a melting point of 250 to 252 °C.

On to `O=Cc1c(O)c(O)cc2ccccc12`, for which the melting point fell in the range of 132 to 133 °C.

On to `O=C1CC(C(F)(F)F)CC(=O)N1c1cc(C2OCCCO2)c(Cl)cc1F`, for which the melting point is 158 to 161 °C.

In the case of `O=C(O)Cc1ccc(CCOc2ccc(CC3SC(=O)NC3=O)cc2)nc1` (configuration not stated), the melting point is 144 to 145 °C.

`Cc1nccc2c3ccc(OCc4cccc(F)c4)cc3n(Cc3cccc(F)c3)c12` gave a melting point of 148 °C.

In the case of `COc1ccc(Cl)cc1C(=O)c1cc(C(F)(F)F)ccc1NC(=O)OC(C)(C)C`, the melting point lay within 148 to 150 °C.

Take `Cc1cc(C)c(S(=O)(=O)N[C@@H](CNC(=O)c2ccc3c(cnn3CCc3cc(=O)[nH]c(N)n3)c2)C(=O)O)c(C)c1`: the melting point was in the range of 194 to 195 °C.

Regarding `C1=Cc2ccccc2OC1`, the melting point is 48 to 51 °C.

`CC(=O)OCC1OC(n2c(Cl)nc3ccc(Br)cc32)C(OC(C)=O)C1OC(C)=O` (configuration not stated): the melting point fell in the range of 121 to 122 °C.

`Cc1ncsc1C(C)(O)c1cccs1` (configuration not stated) came in with a melting point of 146 to 148 °C.

As to `O=C(O)CCCN1CCN(Cc2ccc3c(c2)-c2[nH]nc(-c4ccsc4)c2C3)CC1`, the melting point fell in the range of 195 to 198 °C.

Compound `COc1ccc(CN2C(=O)[C@H]([C@@H](C)O)[C@H]2[C@@H]2COC(C)(C)O2)c(OC)c1` returned a melting point of 145 to 146 °C.

`CC[C@@]1(CC(=O)NCc2ccccc2)CCCN2CCc3c([nH]c4ccccc34)[C@@H]21` came in with a melting point of 179 to 180 °C.

With `Cc1ccc(COc2ccc(CC(NC(=O)c3cn4ccc(-c5ccc(Cl)cc5)cc4n3)C(=O)O)cc2)cc1` (configuration not stated), the melting point was found to be 262 °C.

Regarding `CC1(C)CC(=O)C1(Cl)CC(Cl)(Cl)Cl` (configuration not stated), the melting point lay within 75 to 76 °C.

The compound `CN(C(=O)Cc1ccc(Cl)c(Cl)c1)[C@@H]1CCC(=O)C[C@H]1N1CCCC1` (relative stereo) came in with a melting point of 148 to 149 °C.

In turn, `CCNC(=O)Cc1ccc2ccn(C3CCN(CCc4ccccc4F)CC3)c2c1` came in with a melting point of 147 to 149 °C.

In turn, `COc1c(C)c(C)cc(C)c1C(O)(c1ccc(F)cc1)C(C)C` (configuration not stated) had a melting point of 102 to 103 °C.

For the compound `Cc1c(OCc2ccccc2)cc(C(C)(C)C)cc1[N+](=O)[O-]`, the melting point was 77 to 79 °C.

Consider `C/C(=C\c1ccc2c(c1)OCO2)C(=O)O`, for which the melting point was found to be 205 °C.

The compound `CCN(CC)c1ccc(C2(c3ccc(N(C)C)cc3N(C)C)OC(=O)c3cc(N(C)C)ccc32)cc1` (configuration not stated) displayed a melting point of 123 to 125 °C.

`CN(C)C1(c2ccc(C(C)(C)C)cc2)CCC(=O)CC1` gave a melting point of 82.5 to 87 °C.

With `CCCCCCCCCCCCCCCNC(=O)OCCOCCOCCOC(=O)N(Cc1ccccn1)C(C)=O`, the melting point was in the range of 42 to 43 °C.

`O=S(=O)(Nc1ccc(C(O)(C(F)(F)F)C(F)(F)F)cc1)c1ccccc1` displayed a melting point of 117 to 118 °C.

`CS(=O)(=O)c1ccc(-c2cc(CO)cn2-c2ccc(F)cc2)cc1` yielded a melting point of 88 to 90 °C.

In the case of `C#CCOC(=O)Nc1ccc(C2=NNC(=O)CC2C)cc1` (configuration not stated), the melting point lay in the range of 204 to 205 °C.

Take `CC(C(=O)NCCN(C)C)n1cc(-c2ccc(Oc3ccccc3)cc2)c2c(N)ncnc21` (configuration not stated): the melting point lay in the range of 163 to 164 °C.

In turn, `O=C(O)C1SC(C23CC4CC(CC(C4)C2)C3)=NN1C(=O)CCS` (configuration not stated) yielded a melting point of 183 to 184 °C.

`CC(=O)O[C@@H]1[C@H](OC(C)=O)[C@@H](C)O[C@H]1n1c(Br)nc2c(Cl)c(Cl)c(Cl)cc21` had a melting point of 160 to 162 °C.

Consider `CN(C)/C=C/c1cc(OC2CCN(C(=O)OC(C)(C)C)CC2)ccc1C#N`, for which the melting point was 135 to 137 °C.

In the case of `CC(C)(C)OC(=O)N1C[C@@H]2C(=O)CCC(c3ccccc3)(c3ccccc3)[C@@H]2C1`, the melting point amounted to 119 °C.

For the compound `CCC(=O)NCCC1CN(C=O)c2ccc3c(c21)CCO3` (configuration not stated), the melting point lay in the range of 139 to 141 °C.

For `Cc1ccc(S(=O)(=O)NCCCCOc2ccc(-n3ccnc3)cc2)cc1`, the melting point is 96 to 98 °C.

For `Oc1ccc(Cn2c(S)nc3ccccc32)cc1`, the melting point was in the range of 216 to 220 °C.

For `N#Cc1cc(N)c(Cl)c(N)c1`, the melting point came to 172 °C.

Consider `CN1CCN(NC(=O)Nc2cccc3c2C(=O)c2c-3n[nH]c2-c2ccc(N3CCN(C)CC3)cc2)CC1`, for which the melting point came to 293 °C.
